Results reported in patent publication US11723908B2, “Quinazoline derivatives as antitumor agents” (SUZHOU ZANRONG PHARMA LIMITED, priority 2018, dated 2023).
pIC50: −log10 of the molar value.

target: HER2 (Homo sapiens (Human), UniProt P04626); assay: BT474 cellular assay (HER2 inhibition), phospho-HER2 ELISA; type: cell-based; conditions: inhibition of phosphor HER2, BT474 cells, 2 hours compound incubation
Protocol: Assay a) BT474 Cellular Assay (HER2 Inhibition) Inhibition of phosphor HER2 was determined by enzyme-linked immunosorbent assay (ELISA) in BT474 cells. BT474 cell line was purchased from [NT] number HTB-20). Human Phospho-ErbB2 ELISA kit was purchased from R&D systems (catalog number DYC1768). Day 1: When the cells reach 70-90% confluence, cells were trypsinized and re-suspended. 5000 cells per well were seeded to a 384-well plate. The plate was incubated at 37° C. with 5% CO2 for 24 hours. ELISA plate was coated with 2 μg/ml capture antibody, which was incubated at 4° C. overnight. Day 2: 25 nl compounds was dosed by Echo from source plate and the 384-well plate was incubated at 37° C. for 2 hours. 30 μl lysis buffer was added to each well and the 384-well plate was shaken softly at 4° C. for 30 minutes. The ELISA plate was washed, blocked and incubated at room temperature for 1-2 hours. The blocked ELISA plate was washed and 20 μl cell lysate was transferred from the 384-well plate to the ELISA plate, which was incubated overnight at 4° C. Day 3: The ELISA plate was washed 3 times. 25 μl/well detection antibody was added (diluted 1 by 2000 in 1% BSA in PBS). After 2 hours of incubation with detection antibody, the ELISA plate was washed 3 times, 25 μl/well TMB substrate was added and incubated for 10-15 minutes before stop solution was added. Absorbance at 450 nm and 570 nm was read within 30 minutes after adding the stop solution. […] The IC50 results are provided in Table 1 for some exemplary compounds.

Chain of HER2 (P04626 23-1255): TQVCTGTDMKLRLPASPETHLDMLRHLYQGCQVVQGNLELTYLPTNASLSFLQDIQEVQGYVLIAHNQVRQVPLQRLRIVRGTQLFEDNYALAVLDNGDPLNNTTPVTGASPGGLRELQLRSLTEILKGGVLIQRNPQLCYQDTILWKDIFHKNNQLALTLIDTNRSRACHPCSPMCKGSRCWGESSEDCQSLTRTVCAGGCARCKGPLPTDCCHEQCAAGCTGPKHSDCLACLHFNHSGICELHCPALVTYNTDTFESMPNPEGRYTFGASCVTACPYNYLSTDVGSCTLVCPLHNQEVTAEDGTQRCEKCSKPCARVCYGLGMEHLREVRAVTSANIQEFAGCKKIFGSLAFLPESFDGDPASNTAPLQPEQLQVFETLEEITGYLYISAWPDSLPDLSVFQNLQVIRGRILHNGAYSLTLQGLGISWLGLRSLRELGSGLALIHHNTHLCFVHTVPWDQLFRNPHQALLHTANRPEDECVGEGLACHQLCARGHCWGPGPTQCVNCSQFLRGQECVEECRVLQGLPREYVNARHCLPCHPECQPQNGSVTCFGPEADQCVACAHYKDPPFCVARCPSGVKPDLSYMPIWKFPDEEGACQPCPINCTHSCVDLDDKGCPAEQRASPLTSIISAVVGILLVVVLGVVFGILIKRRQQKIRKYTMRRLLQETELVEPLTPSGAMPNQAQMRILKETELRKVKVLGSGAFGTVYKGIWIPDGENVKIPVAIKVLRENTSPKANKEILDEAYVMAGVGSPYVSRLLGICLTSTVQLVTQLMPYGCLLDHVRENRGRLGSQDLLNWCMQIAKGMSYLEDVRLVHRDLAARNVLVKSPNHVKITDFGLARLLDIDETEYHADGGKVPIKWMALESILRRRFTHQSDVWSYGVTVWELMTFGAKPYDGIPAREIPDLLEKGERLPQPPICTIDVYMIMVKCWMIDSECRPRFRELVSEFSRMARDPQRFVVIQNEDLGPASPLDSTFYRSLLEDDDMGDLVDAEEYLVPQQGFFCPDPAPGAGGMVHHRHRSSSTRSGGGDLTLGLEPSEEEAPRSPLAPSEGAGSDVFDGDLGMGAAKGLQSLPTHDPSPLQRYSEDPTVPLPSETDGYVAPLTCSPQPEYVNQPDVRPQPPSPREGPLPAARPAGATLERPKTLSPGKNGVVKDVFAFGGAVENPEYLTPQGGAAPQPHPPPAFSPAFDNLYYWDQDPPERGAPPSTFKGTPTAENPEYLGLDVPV

Row | SMILES | pIC50
1 | COc1ccc2ncnc(Nc3ccc(Oc4cc5ncnn5cn4)c(C)c3)c2c1N1CC[C@@H](N(C)C)C1 [Example 2, (R)—N-(4-([1,2,4]-triazolo[1,5-c]pyrimidin-7-yloxy)-3-methylphenyl)-5-(3-(dimethylamino)pyrrolidin-1-yl)-6-methoxyquinazolin-4-amine] | 7.57
2 | COc1ccc2ncnc(Nc3ccc(Oc4cc5ncnn5cn4)c(C)c3)c2c1OC1CCN(C)CC1 [Example 5, N-(4-([1,2,4]triazolo[1,5-c]pyrimidin-7-yloxy)-3-methylphenyl)-6-methoxy-5-((1-methylpiperidin-4-yl)oxy)quinazolin-4-amine] | 7.09
3 | Cc1cc(Nc2ncnc3ccc(OC(F)F)c(O[C@@H]4CCN(C)CC4(F)F)c23)ccc1Oc1cc2ncnn2cn1 [Example 17, (R)—N-(4-([1,2,4]triazolo[1,5-c]pyrimidin-7-yloxy)-3-methylphenyl)-5-((3,3-difluoro-1-methylpiperidin-4-yl)oxy)-6-(difluoromethoxy)quinazolin-4-amine] | 7.46
4 | Cc1cc(Nc2ncnc3ccc(OC(F)F)c(O[C@H]4CCN(C)CC4(F)F)c23)ccc1Oc1cc2ncnn2cn1 [Example 18, (S)—N-(4-([1,2,4]triazolo[1,5-c]pyrimidin-7-yloxy)-3-methylphenyl)-5-((3,3-difluoro-1-methylpiperidin-4-yl)oxy)-6-(difluoromethoxy)quinazolin-4-amine] | 7.32
5 | Cc1cc(Nc2ncnc3ccc(O[C@H]4CCOC4)c(O[C@@H]4CCN(C)CC4(F)F)c23)ccc1Oc1cc2ncnn2cn1 [Example 21, N-(4-([1,2,4]triazolo[1,5-c]pyrimidin-7-yloxy)-3-methylphenyl)-5-(((R)-3,3-difluoro-1-methylpiperidin-4-yl)oxy)-6-(((S)-tetrahydrofuran-3-yl)oxy)quinazolin-4-amine] | 7.82
6 | Cc1cc(Nc2ncnc3ccc(O[C@H]4CCOC4)c(O[C@H]4CCN(C)CC4(F)F)c23)ccc1Oc1cc2ncnn2cn1 [Example 22, N-(4-([1,2,4]triazolo[1,5-c]pyrimidin-7-yloxy)-3-methylphenyl)-5-(((S)-3,3-difluoro-1-methylpiperidin-4-yl)oxy)-6-(((S)-tetrahydrofuran-3-yl)oxy)quinazolin-4-amine] | 7.68
7 | Cc1cc(Nc2ncnc3ccc(OC(C)C)c(O[C@@H]4CCN(C)CC4(F)F)c23)ccc1Oc1cc2ncnn2cn1 [Example 29, (R)—N-(4-([1,2,4]triazolo[1,5-c]pyrimidin-7-yloxy)-3-methylphenyl)-5-((3,3-difluoro-1-methylpiperidin-4-yl)oxy)-6-isopropoxyquinazolin-4-amine] | 8.03
8 | Cc1cc(Nc2ncnc3ccc(OC(C)C)c(O[C@H]4CCN(C)CC4(F)F)c23)ccc1Oc1cc2ncnn2cn1 [Example 30, (S)—N-(4-([1,2,4]triazolo[1,5-c]pyrimidin-7-yloxy)-3-methylphenyl)-5-((3,3-difluoro-1-methylpiperidin-4-yl)oxy)-6-isopropoxyquinazolin-4-amine] | 7.70
9 | COc1ccc2ncnc(Nc3ccc(Oc4cc5ncnn5cn4)c(C)c3)c2c1N1CC2C1CCN2C1CC1 (centres unmarked) [Example 67, N-(4-([1,2,4]triazolo[1,5-c]pyrimidin-7-yloxy)-3-methylphenyl)-5-(2-cyclopropyl-2,6-diazabicyclo[3.2.0]heptan-6-yl)-6-methoxyquinazolin-4-amine] | 7.77
10 | COc1ccc2ncnc(Nc3ccc(Oc4cc5ncnn5cn4)c(C)c3)c2c1N1CC2C1CCN2CC(F)F (centres unmarked) [Example 68, N-(4-([1,2,4]triazolo[1,5-c]pyrimidin-7-yloxy)-3-methylphenyl)-5-(2-(2,2-difluoroethyl)-2,6-diazabicyclo[3.2.0]heptan-6-yl)-6-methoxyquinazolin-4-amine] | 8.19
11 | Cc1cc(Nc2ncnc3ccc(OC(F)(F)F)c(O[C@@H]4CCN(C)CC4(F)F)c23)ccc1Oc1cc2ncnn2cn1 [Example 72, (R)—N-(4-([1,2,4]-triazolo[1,5-c]pyrimidin-7-yloxy)-3-methylphenyl)-5-((3,3-difluoro-1-methylpiperidin-4-yl)oxy)-6-(trifluoromethoxy)quinazolin-4-amine] | 7.29
12 | COc1ccc2ncnc(Nc3ccc(Oc4cc5ncnn5cn4)c(C)c3)c2c1O[C@@H]1CN(C)CC1(F)F [Example 74, (R)—N-(4-([1,2,4]triazolo[1,5-c]pyrimidin-7-yloxy)-3-methylphenyl)-5-((4,4-difluoro-1-methylpyrrolidin-3-yl)oxy)-6-methoxyquinazolin-4-amine] | 8.00
13 | COc1ccc2ncnc(Nc3ccc(Oc4cc5ncnn5cn4)c(C)c3)c2c1O[C@H]1CN(C)CC1(F)F [Example 75, (S)—N-(4-([1,2,4]triazolo[1,5-c]pyrimidin-7-yloxy)-3-methylphenyl)-5-((4,4-difluoro-1-methylpyrrolidin-3-yl)oxy)-6-methoxyquinazolin-4-amine] | 7.89
14 | COc1ccc2ncnc(Nc3ccc(Oc4cc5ncnn5cn4)c(C)c3)c2c1OC1CCNCC1(F)F (centres unmarked) [Example 76, N-(4-([1,2,4]triazolo[1,5-c]pyrimidin-7-yloxy)-3-methylphenyl)-5-((3,3-difluoropiperidin-4-yl)oxy)-6-methoxyquinazolin-4-amine] | 7.96
15 | [2H]C([2H])([2H])Oc1ccc2ncnc(Nc3ccc(Oc4cc5ncnn5cn4)c(C)c3)c2c1O[C@@H]1CCN(C([2H])([2H])[2H])CC1(F)F [Example 77, (R)—N-(4-([1,2,4]triazolo[1,5-c]pyrimidin-7-yloxy)-3-methylphenyl)-5-((3,3-difluoro-1-(methyl-d3)piperidin-4-yl)oxy)-6-(methoxy-d3)quinazolin-4-amine] | 7.85
16 | COc1ccc2ncnc(Nc3ccc(Oc4cc5ncnn5cn4)c(C)c3)c2c1O[C@@H]1CCN(C(C)C)CC1(F)F [Example 78, (R)-N-(4-([1,2,4]triazolo[1,5-c]pyrimidin-7-yloxy)-3-methylphenyl)-5-((3,3-difluoro-1-isopropylpiperidin-4-yl)oxy)-6-methoxyquinazolin-4-amine] | 7.96
17 | COc1ccc2ncnc(Nc3ccc(Oc4cc5ncnn5cn4)c(C)c3)c2c1O[C@@H]1CCN(C2CC2)CC1(F)F [Example 79, (R)-N-(4-([1,2,4]triazolo[1,5-c]pyrimidin-7-yloxy)-3-methylphenyl)-5-((1-cyclopropyl-3,3-difluoropiperidin-4-yl)oxy)-6-methoxyquinazolin-4-amine] | 8.01
18 | C=CC(=O)N1CC=C(c2ccc3ncnc(Nc4ccc(Oc5cc6ncnn6cn5)c(C)c4)c3c2N2CC(N(C)C)C2)CC1 [Example 80, 1-(4-(4-((4-([1,2,4]triazolo[1,5-c]pyrimidin-7-yloxy)-3-methylphenyl)amino)-5-(3-(dimethylamino)azetidin-1-yl)quinazolin-6-yl)-3,6-dihydropyridin-1(2H)-yl)prop-2-en-1-one] | 6.41
19 | C=CC(=O)N1CC=C(c2ccc3ncnc(Nc4ccc(Oc5cc6ncnn6cn5)c(C)c4)c3c2O[C@@H]2CCN(C)CC2(F)F)CC1 [Example 81, (R)-1-(4-(4-((4-([1,2,4]triazolo[1,5-c]pyrimidin-7-yloxy)-3-methylphenyl)amino)-5-((3,3-difluoro-1-methylpiperidin-4-yl)oxy)quinazolin-6-yl)-3,6-dihydropyridin-1(2H)-yl)prop-2-en-1-one] | 6.65
20 | C=CC(=O)N1CCC=C(c2ccc3ncnc(Nc4ccc(Oc5cc6ncnn6cn5)c(C)c4)c3c2N2CC(N(C)C)C2)C1 [Example 82, 1-(5-(4-((4-([1,2,4]triazolo[1,5-c]pyrimidin-7-yloxy)-3-methylphenyl)amino)-5-(3-(dimethylamino)azetidin-1-yl)quinazolin-6-yl)-3,6-dihydropyridin-1(2H)-yl)prop-2-en-1-one] | 6.75
21 | C=CC(=O)N1CCC=C(c2cc(N3CC(N(C)C)C3)c3c(Nc4ccc(Oc5cc6ncnn6cn5)c(C)c4)ncnc3c2)C1 [Example 84, 1-(5-(4-((4-([1,2,4]triazolo[1,5-c]pyrimidin-7-yloxy)-3-methylphenyl)amino)-5-(3-(dimethylamino)azetidin-1-yl)quinazolin-7-yl)-3,6-dihydropyridin-1(2H)-yl)prop-2-en-1-one] | 6.68
22 | COc1ccc2ncc(C#N)c(Nc3ccc(Oc4cc5ncnn5cn4)c(C)c3)c2c1O[C@@H]1CCN(C)CC1(F)F [Example 86, (R)-4-((4-([1,2,4]triazolo[1,5-c]pyrimidin-7-yloxy)-3-methylphenyl)amino)-5-((3,3-difluoro-1-methylpiperidin-4-yl)oxy)-6-methoxyquinoline-3-carbonitrile] | 6.68
23 | Cc1cc(Nc2ncnc3ccc(NC(=O)/C=C/CN(C)C)c(O[C@@H]4CCN(C)CC4(F)F)c23)ccc1Oc1cc2ncnn2cn1 [Example 92, (R,E)-N-(4-((4-([1,2,4]triazolo[1,5-c]pyrimidin-7-yloxy)-3-methylphenyl)amino)-5-((3,3-difluoro-1-methylpiperidin-4-yl)oxy)quinazolin-6-yl)-4-(dimethylamino)but-2-enamide] | 6.57
